Laboratory results: patent US20190256499A1, “SUBSTITUTED QUINOXALINE DERIVATIVES AS INHIBITORS OF PFKFB” (priority 2016, published 2019)
In brackets after ≈: the same amount, converted by molar mass. Read-outs that look alike come from different tables or passages of the source.

Columns and labels:
[1] = Microsomal stability (intrinsic clearance), human liver microsomes; format: in vitro ADME; set-up: microsomal CLint: dose or concentration left out as unconfirmed; conditions: for microsomal CLint: human, liver microsomes, pH 7.4, human liver microsomes
Source text: (§1) A microsomal stability assay is used to measure in vitro clearance (Clint). The assay involves measuring the rate of disappearance of a compound due to its intrinsic attitude to be metabolized (“intrinsic” meaning that the disappearance is not affected by other properties like permeability, binding etc. that play a role when quantifying in vivo clearance). The microsomal stability (intrinsic clearance, Clint) and thus metabolic stability is generally given as μl/min/mg protein. It can be visualized as the volume of solution that 1 mg of microsomes is able to clear of the compound in one minute.
(§2) A Tecan Genesis workstation (RSP 150/8) was used for to perform the microsomal incubations. Analysis was carried out using a Waters ACQUITY UPLC system coupled to an ABSciex API3000 mass spectrometer. Data analysis was performed using Assay Explorer (Symyx).
(§3) Mobile phases: A=0.1% formic acid in water; B=acetonitrile
(§4) Flow rate: 0.750 mL/min; Detection: ESI, MRM; Injection: 10 μL; Column temperature: 50° C.
(§5) Potassium phosphate buffer: 0.05 M potassium phosphate buffer pH 7.4 containing 1 mM MgCl2 NADPH (nicotinamide adenine dinucleotide phosphate): 22.5 mg NADPH-Na4 in 1.8 ml potassium phosphate buffer Acetonitrile: 50 Vol % acetonitrile (1 volume acetonitrile, 1 volume water) DMSO: 20 Vol % DMSO in water Stock solution of 20 mg/ml human or mouse liver microsomes (protein)/ml in phosphate buffer Stock solution of 10 mM compound in 100% DMSO

[2] = target: T1, Human recombinant His-tagged PFKFB3 (Homo sapiens, UniProt Q16875); assay: PFKFB3 IC50 determination assay (modified ADP-Glo in vitro kinase assay); format: biochemical; conditions: ATP 20 μM, fructose-6-phosphate 2 μM, 2 h, rt
T1 construct: His; made in house
Method: In vitro kinase assay used to determine IC50 values for tested inhibitors is based on a modified ADP-Glo™ system (Promega) and consists of two parts:
1. Kinase reaction—performed in optimized conditions. At this step PFKFB3 phosphorylates its substrate fructose-6-phosphate using ATP as a source of phosphate to produce fructose-2,6-bisphosphate and ADP. Reaction is performed at Km values for ATP and substrate using optimized buffer composition and time of the reaction. Human recombinant His-tagged PFKFB3 (PFKFB3 BATCH II SEC) with confirmed activity is produced and purified in-house. 2. Detection of ADP as a product of the reaction using ADP-Glo™ system. This part is conducted by using the commercially available kit ADP-Glo™ Kinase Assay (Promega, cat. No# V9103) according to manufacturer's instruction, modified by 5× dilutions of assay reagents (both ADP-Glo™ Reagent and Kinase Detection Solution). Reproducibility and reliability of this modification is confirmed in an optimization process.
Test compounds are dissolved in DMSO and then transferred to the V-bottom 96-well plate. For IC50 determination ten 10× serial dilutions starting from 100 μM are prepared.
Two mixes are prepared on ice: Mix 1—containing appropriate kinase amount in 2× reaction buffer (100 mM TRIS pH 8.0) and Mix 2—containing 2.31× concentrated substrate (Fructose-6-phosphate) and ATP in MilliQ water. 15 μL per well of Mix 1 is transferred to assay wells of 96-well white plate. Next, 2 μl of 15× concentrated test compound in DMSO is added to Mix 1 for 20 min pre-incubation, followed by addition of Mix 2 (13 μl/well). Total reaction volume is 30 μL per well. Samples are tested in duplicates. Final concentration of DMSO in the reaction is 6.7%. Conditions needed for performing PFKFB3 (PFKFB3 BATCH II SEC) in vitro kinase assay are given below:
This protocol is based on Technical Bulletin, ADP-Glo™ Kinase Assay (Promega) and is adapted to 96-well plate containing 30 μL reaction mixture:
30 μL of 5× diluted ADP-Glo™ Reagent is added to each well of 96-well plate containing 30 μL of reaction mixture. The plate is incubated for 90 minutes on a shaker at rt. 60 μL of 5× diluted Kinase Detection Solution is added to each well of 96-well plate containing 60 μL of the solution (ratio of kinase reaction volume to ADP-Glo™ Reagent volume to Kinase Detection Solution volume is maintained at 1:1:2). Plate is incubated for 40 minutes on a shaker at rt, protected from light. Luminescence is measured in the plate reader Synergy 2 (BioTek).
Luminescent readouts for compounds tested in 10 concentrations (routinely from 100 μM to […], […] serial dilutions) in duplicates, as well as for positive control, are first normalized to no-substrate negative control by its subtraction. In the next step, % of normalized positive control is calculated for each data point and plotted against test compound concentration:
% of control—percent of positive control normalized to no-substrate negative control Lumcpd—luminescence of test compound Lumneg—luminescence of no-substrate negative control Lumpos—luminescence of positive control
IC50 parameter is determined by the GraphPad Prism 5.0 software [log(inhibitor) vs. response—Variable slope (four parameters)].

[3] = Microsomal stability (intrinsic clearance), mouse liver microsomes; format: in vitro ADME; set-up: microsomal CLint: dose or concentration left out as unconfirmed; conditions: for microsomal CLint: mouse, liver microsomes, pH 7.4, mouse liver microsomes
Source text: as §1, §2, §3, §4, §5

Kinetic solubility = format: physicochemical; conditions: phosphate buffer 20 mM pH 7.4, 2% DMSO, room temperature; for solubility kinetic at 120 min: phosphate buffer, pH 7.4, aqueous buffer, kinetic from dmso stock
Method: Kinetic solubility of compounds of the present invention were tested according the following procedure.
(a) Buffer Solution Phosphate Buffer 20 mM pH 7.4 is prepared using Sorensen Phosphate Buffer 0.2 M pH 7.4 (EMS) in a 1000 mL volumetric flask (b) 2% DMSO in Phosphate Buffer 20 mM pH 7.4 is prepared by using 1 mL Dimethylsulfoxide (Merck) and 49 ml Sorensen Phosphate Buffer 20 mM pH 7.4 (c) Acetonitrile/Methanole/Eluent A (1:1:2; v/v/v) is prepared by using 50 mL Acetonitrile (Merck), 50 mL Methanol (Merck) and 100 mL Eluent A (d) Eluent A is prepared by using 1 mL Formic Acid (Merck) and 999 mL Ultrapure water (e) Eluent B is prepared by using 1 mL Formic Acid (Merck) and 999 mL Acetonitrile (Merck) (f) Filtration plate: Millipore MultiScreen HTS HV (0.45 μm) 96 Well (Millipore)
98 μL buffer solution (a) is added into a well of a 96 well filtration plate (f). Then 2 μL of 10 mM test compound solution in DMSO (Remp tube) is added. The filtration plate is incubated at room temperature for 120 minutes while agitating at 250 rpm and centrifuged with the PP-Plate (g) as receiver plate below (2500 rpm, 3 min). The 50 μL of filtrate is taken from the receiver plate and mixed with 50 μL of 2% DMSO in buffer pH 7.4 solution (b) (dilution factor=2) in a HPLC Vial (i)+(j).
Standard is prepared by diluting 2 μL of the same 10 mM test compound solution (Remp tube) diluted with 198 μL Acetonitrile/Methanole/Eluent A (1:1:2; v/v/v) (c) to prepare a 100 μM standard solution in a HPLC Vial (i)+(j).
Column temperature: 37° C. Autosampler: room temperature (approx. 25° C.) Gradient programme: […]
Injection volume: 10 μL Wavelength: Suitable wavelength (maximum sensitivity) selected out of wavelength range of 190-400 nm using a DAD detector.
L [μg/mL]=(area sample*concentration standard*dilution factor sample)/(area standard*dilution factor standard)
S [mol/L]=[…] Calculation: […]

[4] = PFKFB IC50, human recombinant PFKFB3 25 nM
[5] = human recombinant PFKFB3 25 nM, read-out: PFKFB IC50

T1 sequence (Q16875 whole entry): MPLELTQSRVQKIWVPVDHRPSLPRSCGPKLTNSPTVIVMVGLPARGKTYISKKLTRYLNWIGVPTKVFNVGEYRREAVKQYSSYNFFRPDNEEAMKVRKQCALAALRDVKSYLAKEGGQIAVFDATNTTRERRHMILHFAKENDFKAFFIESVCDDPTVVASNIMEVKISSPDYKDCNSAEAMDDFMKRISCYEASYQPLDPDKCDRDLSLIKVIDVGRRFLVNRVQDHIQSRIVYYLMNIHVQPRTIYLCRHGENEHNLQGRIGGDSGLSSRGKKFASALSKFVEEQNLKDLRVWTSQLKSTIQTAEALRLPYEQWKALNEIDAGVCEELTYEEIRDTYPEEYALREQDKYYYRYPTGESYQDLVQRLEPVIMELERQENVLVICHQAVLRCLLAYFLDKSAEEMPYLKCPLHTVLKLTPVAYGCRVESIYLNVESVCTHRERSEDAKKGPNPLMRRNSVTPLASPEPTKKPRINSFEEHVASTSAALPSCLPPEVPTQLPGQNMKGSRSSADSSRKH

| IC50 [2, 4] | CLint Human ([1]; human liver microsomes) | Kinetic solubility (Kinetic solubility; 120 minutes) | CLint Mouse ([3]; mouse liver microsomes) | Structure (SMILES) | microsomal CLint [1] | microsomal CLint [3] | IC50 [2, 5] | solubility kinetic at 120 min (Kinetic solubility) |
| --- | --- | --- | --- | --- | --- | --- | --- | --- |
| 25 nM | – | – | – | COc1ccc(C(Nc2cc(-c3ccc4ccn(C)c4c3)c3nccnc3c2)c2cnnn2C)cn1 (racemic) [Comparative Example 1, [(6-Methoxy-pyridin-3-yl)-(3-methyl-3H-[1,2,3]triazol-4-yl)-methyl]-[8-(1-methyl-1H-indol-6-yl)-quinoxalin-6-yl]-amine, reference compound] | 163 µL/min/mg | 188 µL/min/mg | – | – |
| – | 61 μl/min/mg prot | 64 µM | 92 μl/min/mg prot | Cn1ccc2ccc(-c3cc(NC(c4cccnc4)c4ccc(=O)[nH]n4)cc4nccnc34)cc21 (single isomer, unassigned) [Example 3] | – | – | 180 nM | – |
| – | – | – | – | COc1ccc([C@H](Nc2cc(-c3ccc4ccn(C)c4c3)c3nccnc3c2)c2cccnc2)nn1 (single isomer, unassigned) [Example 6] | 174 µL/min/mg | 134 µL/min/mg | 900 nM | 18 µM (≈ 8.52 µg/mL) |
| – | – | – | – | Cn1cc([C@@H](Nc2cc(-c3ccc4ccn(C)c4c3)c3nccnc3c2)c2cnnn2C)cn1 (single isomer, unassigned) [Example 9] | 52 µL/min/mg | 146 µL/min/mg | 87 nM | 110 µM (≈ 49.4 µg/mL) |
| – | – | – | – | Cn1cc([C@@H](Nc2cc(-c3ccc4ccn(C)c4c3)c3nccnc3c2)c2cncn2C)cn1 (single isomer, unassigned) [Example 12] | – | – | 44 nM | – |
| – | – | – | – | Cn1cc([C@H](Nc2cc(-c3ccc4ccn(C)c4c3)c3nccnc3c2)c2nccn2C)cn1 (single isomer, unassigned) [Example 14] | 57 µL/min/mg | 67 µL/min/mg | 640 nM | 36 µM (≈ 16.1 µg/mL) |
| – | – | – | – | Cn1cc([C@@H](Nc2cc(-c3ccc4ccn(C)c4c3)c3nccnc3c2)c2nccn2C)cn1 (single isomer, unassigned) [Example 15] | 76 µL/min/mg | 88 µL/min/mg | 560 nM | 48 µM (≈ 21.5 µg/mL) |
| – | – | – | – | Cn1cc([C@@H](Nc2cc(-c3ccc4ccn(C)c4c3)c3nccnc3c2)c2cccnc2)cn1 (single isomer, unassigned) [Example 17] | 172 µL/min/mg | 95 µL/min/mg | 120 nM | 42 µM (≈ 18.7 µg/mL) |
| – | – | – | – | Cn1cc([C@H](Nc2cc(-c3ccc4ccn(C)c4c3)c3nccnc3c2)c2cccnc2)cn1 (single isomer, unassigned) [Example 18] | 142 µL/min/mg | 148 µL/min/mg | 6.5 nM | 39 µM (≈ 17.4 µg/mL) |
| – | – | – | – | CC(C)[C@@H](Nc1cc(-c2ccc3ccn(C)c3c2)c2nccnc2c1)c1cccnc1 (single isomer, unassigned) [Example 20] | > 500 µL/min/mg | > 500 µL/min/mg | 33 nM | 6 µM (≈ 2.45 µg/mL) |
| 23 nM | – | – | – | CC(C)[C@H](Nc1cc(-c2ccc3ccn(C)c3c2)c2nccnc2c1)c1cccnc1 (single isomer, unassigned) [Example 21] | 366 µL/min/mg | 488 µL/min/mg | – | 7 µM (≈ 2.85 µg/mL) |
| – | – | – | – | Cn1cc([C@@H](Nc2cc(-c3cnc4ccn(C)c4c3)c3nccnc3c2)c2cccnc2)cn1 (single isomer, unassigned) [Example 26] | 67 µL/min/mg | 58 µL/min/mg | 1100 nM | 192 µM (≈ 85.7 µg/mL) |
| – | – | – | – | Cn1cc([C@H](Nc2cc(-c3cnc4ccn(C)c4c3)c3nccnc3c2)c2cccnc2)cn1 (single isomer, unassigned) [Example 27] | 404 µL/min/mg | 64 µL/min/mg | 6300 nM | 161 µM (≈ 71.9 µg/mL) |
| – | – | – | – | Cn1ccc([C@@H](Nc2cc(-c3ccc4ccn(C)c4c3)c3nccnc3c2)c2cnnn2C)n1 (single isomer, unassigned) [Example 29] | 51 µL/min/mg | 69 µL/min/mg | 22 nM | 108 µM (≈ 48.5 µg/mL) |
| – | – | – | – | Cn1ccc([C@H](Nc2cc(-c3ccc4ccn(C)c4c3)c3nccnc3c2)c2cnnn2C)n1 (single isomer, unassigned) [Example 30] | 132 µL/min/mg | 216 µL/min/mg | 190 nM | 96 µM (≈ 43.2 µg/mL) |
| – | – | – | – | COc1ccc([C@H](Nc2cc(-c3ccc4ccn(C)c4c3)c3nccnc3c2)c2cnnn2C)cn1 [Comparative Example 2, N—[(S)-(6-methoxypyridin-3-yl)(1-methyl-1H-1,2,3-triazol-5-yl)methyl]-8-(1-methyl-1H-indol-6-yl)quinoxalin-6-amine, reference compound] | 113 µL/min/mg | 134 µL/min/mg | 3.5 nM | 22 µM (≈ 10.5 µg/mL) |
